Series [1] deals with SMN2 minigene mRNA (SMN2-A minigene) in HEK293H cells. The experiment in a line: SMN2 minigene mRNA splicing RT-qPCR assay in cultured cells. It counts as cell-based, human. Particulars: Homo sapiens, HEK293-H; concentration increasing full length SMN2 mRNA 1.5-fold relative to vehicle-treated cells; HEK293H cells with SMN2-A minigene, 24 hours, 7-point concentration data; read-out: EC1.5x for production of full length SMN2 mRNA. In short, it runs like this:
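Potency reflects the concentration that lifts full-length SMN2 minigene mRNA 1.5-fold above vehicle in stably transfected HEK293H cells after 24 h of treatment. Transcript abundance came from RT-qPCR as (1+E)^−Ct, normalized to GAPDH; endogenous SMN1/SMN2 are not detected.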

Series [2] deals with Smn protein in SMA patient fibroblast cells (GM03813). The experiment in a line: Smn protein assay in cultured cells (SMN HTRF). It counts as cell-based, human. Particulars: SMA patient fibroblast cells, 48 hours; for maximum fold (Fold) increase of Smn protein: 7-point concentration data, fold relative to vehicle control. In short, it runs like this:
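Smn protein abundance in treated SMA fibroblasts was measured by HTRF after 48 h compound exposure. The reported EC1.5× is the concentration producing 1.5 times vehicle Smn levels.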
A general note: In TR-FRET formats the signal depends on donor and acceptor labels being close together.

We go through two molecules from patent US11753407B2, “Compounds for treating spinal muscular atrophy” (PTC Therapeutics, Inc., priority 2012, dated 2023).

What is called melting point is the temperature of the solid-liquid transition.

For the molecule `CCN1CCC(c2ccc3nc(-c4ccn5cc(C)nc5c4)cc(=O)n3c2)CC1` [Compound 560, 7-(1-ethylpiperidin-4-yl)-2-(2-methylimidazo[1,2-a]pyridin-7-yl)-4H-pyrido[1,2-a]pyrimidin-4-one], the melting point fell in the range of 229 to 233 °C. Also, the EC (1.5-fold increase) in series [1] fell in the range of 1 to 3 µM. In addition, in series [2], the “maximum fold (Fold) increase of Smn protein” value is “* (A maximum fold increase of ≤1.2 is indicated by one star (*))”.
On to `CCc1cc(-c2cc(=O)n3cc(C4CCN(CC)CC4)ccc3n2)cn2cc(C)nc12` [Compound 698, 2-(8-ethyl-2-methylimidazo[1,2-a]pyridin-6-yl)-7-(1-ethylpiperidin-4-yl)-4H-pyrido[1,2-a]pyrimidin-4-one], for which the melting point fell in the range of 196 to 200 °C. Besides, the EC (1.5-fold increase) in series [1] is less than 0.1 µM. In addition, the “EC1.5x for Smn protein expression” value in series [2] (7-point concentration curve, SMN HTRF, concentration producing 1.5 times Smn protein vs DMSO vehicle control) is listed as “**** (an EC1.5x≤0.3 μM is indicated by four stars (****))”. The “maximum fold (Fold) increase of Smn protein” value in series [2] is on record as “***** (a fold increase >1.65 is indicated by five stars (*****))”.
